Read-outs that look alike come from different tables or passages of the source.
Key:
γ-secretase complex = γ-secretase complex (Homo sapiens, UniProt P49768); experiment: APP-C99 counter assay (GSI reporter assay); type: cell-based; set-up: AUC APP: scale not given here; conditions: for Hill-slope / curve fit information: 14p APP assay DR; for AUC APP: area under the 14-point dose-response curve, replicates averaged; for remaining activity at 10 µM / remaining activity at 25 µM / remaining activity at […]: 24 h, APP-C99 counter assay, read-out: 3p-DR in % of DMSO counter; for remaining activity at […]: 1,25µM
Procedure: To this end, we used a previously established reporter gene-based GSI assay (APP-C99) (Fig. 3A), which measures γ-secretase activity through cleavage of amyloid precursor protein (APP), another protein processed by the γ-secretase complex[24]
Plasmids for APP and luciferase are described in[24] and the renilla plasmid described above generated for this project was used to normalize firefly values. 24 h post transfection cells were seeded on compound plates and cells were cultivated for 24 h before luciferase signals were read, as described.
Two-fold concentrations of compounds were diluted in 10 µl cell culture medium and brought to one-fold by seeding 10 µl containing 4000 cells of the respective cell type on each well of a 384-well plate, as described above. Analogous to the previous assays, all plates contained one DMSO and DAPT control column with the Notch reporter cell line (#A1-11) and a DMSO only and Notch inhibitor control plate was read before the measuring the screening plates. In addition, DAPT and DMSO were spotted in a dose response fashion, and a minimum of four replicates were read. Dose-responses of compounds were recorded in triplicates for each concentration reading out the dual luciferase reporters, as described above. Dose response assays were read together in one session. To measure compound effects, the different assays dose–response curves were fitted using the log(inhibitor) vs. response – Variable slope (model: Y = Bottom + (Top–Bottom)/(1 + 10^((LogIC50-X)*HillSlope)) equation.
A DMSO plate was read before measuring luciferase activity of compound spotted plates. APP firefly luciferase reporter assays were read with a signal integration time of 0.1 s, instead of 0.5 s used for the Notch reporter to reduce signal overlap between wells. […] The area-under-the-curve (AUC) was calculated on dose–response curves using Graphpad Prism.

Notch signalling = experiment: Notch reporter assay (12xCSL firefly luciferase / renilla luciferase, HEK293T Notch1ΔE reporter cell line clone #A1-11); type: cell-based; set-up: AUC Notch: scale not given here; conditions: for Bottom (Emax): Emax indicated independent from assay constraints, in % (unit assumed); for AUC Notch: area under the 14-point dose-response curve, replicates averaged; for IC50 / activity at 10 µM / activity at 25 µM / activity: Homo sapiens, HEK-293T; for activity: 1,25µM
Description: To identify novel Notch inhibitors in an unbiased manner, we generated a novel Notch reporter construct, which records the level of Notch signalling immediately downstream of receptor activation rather than further downstream in the signalling cascade, for example at the level of Hes and Hey proteins (Fig. 1B). […] The reporter construct carries piggy-bac sequences at both ends of the promoter-reporter cassette as well as cSH4 insulator elements to reduce transcriptional noise[21] and was transfected into HEK293T cells. To achieve a robust level of Notch receptor activity in the HEK293T reporter cell line and to confine the search for inhibitors to compounds affecting the receptor function and eliminating the need for ligand activation, a truncated ligand-independent version of the Notch1 receptor, mimicking an S2-cleaved Notch1 receptor (Notch1ΔE) and spontaneously activated by S3-cleavage[22] (Fig. 1C) was introduced into the cell line carrying the reporter construct (Fig. 1D). In addition, an HSV-TK-renilla luciferase plasmid was introduced into the cell line as an internal control for normalisation of the reporter expression (Fig. 1D).
A de novo Notch reporter construct, composed of six dimeric CSL binding sites linked to a basic b-globin promoter and followed by a firefly luciferase gene and a PEST degradation domain was synthesised (GeneArt). The construct was stably introduced into HEK293T cells, and zeocin (0.1 mg/ml) or Puromycin (0.05 mg/ml (ThermoFisher, cat #R25001, #A1113803) were used as selection markers. A clonal cell line (clone #A1) with robust renilla expression and enhanced firefly luciferase expression upon transient transfection of Notch1 ICD or Notch1ΔE constructs was selected, and a UB6 promoter-Notch1DE construct was stably introduced into this cell line using Blasticidin (0.1 mg/ml; ThermoFisher, cat #A1113903) as a selection marker. Stable cell lines were generated by serial dilution and only clonal colonies were selected for further evaluation. To measure luciferase reporter activity, cells were washed in cold PBS, detached, and collected in pre-warmed cell culture medium and centrifugated for five min at 200xg. The cell pellet was resuspended in medium, cells were counted, and 4,000 cells were seeded in each well of a white 384 well plate (Corning #3670) in 20 µl medium containing either DMSO or the GSI DAPT (N-[N-(3,5-Difluorophenacetyl)-L-alanyl]-S-phenylglycine t-butyl ester, Sigma-Aldrich, cat #565784-M) and incubated for 24 h. The efficacy of the reporter gene system was determined by monitoring the level of luciferase activation in the absence or presence of different amounts of DAPT in several cell clones. Luciferase activity was assessed using the dual-GLO luciferase detection kit from Promega (cat # E2920), following the manufacturer’s instructions. A minimum of two technical replicates were measured per clone using a SpectraMaxi3 plate reader (Molecular Devices). Reporter activity of different clones and in response to DAPT was assessed by normalising firefly (Notch activity) to renilla luciferase signals. Normalised signals of individual clones cultivated in DMSO were then compared to corresponding signals generated with DAPT-treated cells. The cell clone with the strongest signal to control ratio (DMSO to DAPT) was then selected for further exploration (clone #A1-11).
37,966 compounds were spotted by the compound center at SciLifeLab (https://www.scilifelab.se/) on a total of 120 plates (Greiner #781080) at a fixed concentration of 10 µM and the screening process spanned five consecutive sessions. The layout of each plate contained one column for DMSO and one for DAPT controls to determine the quality and reliability of the data. DAPT controls were spotted at 10 µM and DMSO was spotted in an equimolar volume. In addition, plates spotted with only DMSO were utilized to investigate the impact of plate effects before and after each session. […]

[1] = bottom constrained to Emax of positive control LY-411575
[2] = 14p Notch assay DR, bottom constrained to Emax of positive control DAPT, read-out: approximated IC50
[3] = 14p Notch assay DR, log10 value, bottom constrained to Emax of positive control DAPT, read-out: approximated LogIC50 (converted)
[4] = 10 µM, primary screen, 24 h, unit from Fig. 2 legend, read-out: Primary screen at 10 µM (Notch reporter signal)
[5] = 10 µM, three-dose confirmation screen, unit from Fig. 2 legend, read-out: Hit confirmation at 10 µM (Notch reporter signal)
[6] = 10µM, 3-point DR confirmation screen, Notch reporter assay, read-out: inhibitor ratio in % of DMSO in 3 point DR
[7] = 10 µM, sheet conf vs counter 10 µM, same values as 3-point DR confirmation screen, read-out: Confirmation screen
[8] = 25µM, 3-point DR confirmation screen, Notch reporter assay, read-out: inhibitor ratio in % of DMSO in 3 point DR
[9] = 25 µM, Notch reporter 3-point dose-confirmation assay, sheet "conf vs counter 25 µM", read-out: Confirmation screen
[10] = 3-point DR confirmation screen, Notch reporter assay, read-out: inhibitor ratio in % of DMSO in 3 point DR

Compound	Hill-slope (γ-secretase complex; [1])	AUC APP (γ-secretase complex)	Bottom (Emax) (Notch signalling; 14p Notch assay DR)	AUC Notch (Notch signalling)	IC50 (Notch signalling; [2])	IC50 (Notch signalling; [3])	other results
COc1cc(Nc2nc(-c3ccc(Cl)cc3)cn3ccnc23)cc(OC)c1OC [CBK066238]	0.0221	492.9	82.4	336.0			
COc1ccc(-c2cn3ccnc3c(Nc3ccccc3)n2)cc1 [CBK066257]	-3.32e-11	515.8	91.1	403.0			curve fit information (γ-secretase complex; [1]): IC50 indeterminate
COc1cc(Nc2nc(-c3cccc(Cl)c3)cn3ccnc23)cc(OC)c1OC [CBK066271]	-16.9	485.9	87.7	348.0			
COc1cc(Nc2nc(-c3cccc(O)c3)cn3ccnc23)cc(OC)c1OC [CBK066361]	-3.83e-12	487.2	55.6	316.0	12 µM	12.6 µM	curve fit information (γ-secretase complex; [1]): IC50 indeterminate
CC(=O)Nc1cccc(-c2cn3ccnc3c(Nc3ccc(N4CCOCC4)cc3)n2)c1 [CBK066362]	0.3	828.0	95.3	529.0			
c1ccc(Nc2nc(-c3ccc(Oc4ccccc4)cc3)cn3ccnc23)cc1 [CBK066406]	0.00761	491.7	88.8	367.0			
O=C1NC(c2cccnc2)Nc2sc3c(c21)CCCC3 (stereo not shown) [CBK072377]	0.0091	497.7	89.1	364.0			approximated IC50, Notch reporter assay (Notch signalling; 14-point dose-response, Fig. 4): Indeterminate
COc1cccc(CNc2ccc(N3CCOCC3)cc2)c1OCc1ccccc1F [CBK074406]	0.0527	758.8		518.0	3.5 µM	3.16 µM	Hill-slope (γ-secretase complex; bottom constrained to Emax of positive control CB-103): 0.00965; remaining activity at 10 µM (γ-secretase complex): 153%; remaining activity at 25 µM (γ-secretase complex): 158%; remaining activity at […] (γ-secretase complex): 102%; IC50 (Notch signalling; 14p Notch assay DR, averaged when replicate measurements were available, read-out: averaged IC50s): 3.5 µM; IC50 (Notch signalling; 14p Notch assay DR, bottom constrained to Emax of positive control RO4929097, read-out: approximated IC50): 3.5 µM; IC50 (Notch signalling; 14p Notch assay DR, log10 value, bottom constrained to Emax of positive control RO4929097, read-out: approximated LogIC50 (converted)): 3.16 µM; activity at 10 µM (Notch signalling; [4]): 56.4%; activity at 10 µM (Notch signalling; [5]): 68%; activity at 10 µM (Notch signalling; [6]): 68%; activity at 10 µM (Notch signalling; [7]): 68%; activity at 25 µM (Notch signalling; [8]): 66.7%; activity at 25 µM (Notch signalling; [9]): 66.7%; activity (Notch signalling; [10]): 98.6%
COc1cccc(Nc2nc(-c3cccnc3)cn3ccnc23)c1 [CBK103068]	0.0551	517.0	69.8	335.0	> 40 µM	> 40 µM	
Cc1c(C(C)NC(=O)c2[nH]c3ccccc3c2Cl)cnn1C (stereo not shown) [CBK246640]	0.0225	737.0	91.1	612.0			approximated IC50, Notch reporter assay (Notch signalling; 14-point dose-response, Fig. 4): Indeterminate
Cc1ccc2cc(C(=O)NC(C)c3cnn(C)c3C)[nH]c2c1 (stereo not shown) [CBK246728]		720.8		605.0	> 5 µM	> 5 µM	curve fit information (γ-secretase complex; [1]): IC50 indeterminate; IC50 (Notch signalling; 14-point dose-response, Fig. 4, read-out: approximated IC50, Notch reporter assay): > 5 µM
CC(=O)Oc1cccc(N2C(=O)c3ccc(Oc4cccc(N)c4)cc3C2=O)c1 [CBK261099]	-2.8	428.7	18.6	282.0	1.8 µM	1.58 µM	remaining activity at 10 µM (γ-secretase complex): 80.5%; remaining activity at 25 µM (γ-secretase complex): 59.7%; remaining activity at […] (γ-secretase complex): 124%; activity at 10 µM (Notch signalling; [4]): 31.5%; activity at 10 µM (Notch signalling; [5]): 28.1%; activity at 10 µM (Notch signalling; [6]): 28.1%; activity at 10 µM (Notch signalling; [7]): 28.1%; activity at 25 µM (Notch signalling; [8]): 20.3%; activity at 25 µM (Notch signalling; [9]): 20.3%; activity (Notch signalling; [10]): 87.9%
